# Test results published in US6335339B1, “Triazine antiviral compounds” (Scriptgen Pharmaceuticals, Inc., priority 1998, dated 2002).
# Test system: HIV derived RRE RNA
# Test: heterologous hybridization inhibition assay with RRE RNA
# Assay type: binding
# Settings: radiolabeled RRE RNA, rRNA competitor; call rule not given here
SMILES,RRE + rRNA IC50 (μM),IC50 [µM]
Cc1ccc(Nc2nc(NN=Cc3ccccc3)nc(Nc3ccccc3)n2)c(C)c1 [Compound 7],Inactive,
CCCCN(CCCC)c1nc(N/N=C/c2cc(I)cc(I)c2O)nc(Nc2ccc([N+](=O)[O-])cc2)n1 [Compound 8],inactive,
Cc1ccc(Nc2nc(NN=Cc3ccc(O)cc3O)nc(Nc3ccc([N+](=O)[O-])cc3)n2)cc1C [Compound 9],inactive,
Cc1ccccc1Nc1nc(NN=Cc2ccc(I)cc2)nc(Nc2ccc([N+](=O)[O-])cc2)n1 [Compound 10],inactive,
CCCCN(CCCC)c1nc(NN=Cc2ccc3c(c2)OCO3)nc(Nc2ccc([N+](=O)[O-])cc2)n1 [Compound 11],inactive,
Cc1ccc(Nc2nc(NN=Cc3ccccc3O)nc(Nc3ccc([N+](=O)[O-])cc3)n2)cc1C [Compound 12],inactive,
CCN(CC)c1nc(NN=Cc2ccc([N+](=O)[O-])cc2)nc(Nc2ccccc2)n1 [Compound 13],inactive,
COc1c(Br)cc(Br)cc1C=NNc1nc(Nc2ccccc2)nc(N2CCCCC2)n1 [Compound 14],inactive,
Cc1ccc(C=NNc2nc(Nc3ccc([N+](=O)[O-])cc3)nc(Nc3ccccc3C)n2)cc1 [Compound 15],inactive,
CCCCN(CCCC)c1nc(NN=Cc2ccc(Cl)cc2)nc(Nc2ccc([N+](=O)[O-])cc2)n1 [Compound 16],inactive,
CC(C=NNc1nc(Nc2ccc([N+](=O)[O-])cc2)nc(Nc2ccc(C)c(C)c2)n1)=Cc1ccccc1 [Compound 19],inactive,
COc1ccc(Nc2nc(NN=Cc3ccc(OC)cc3OC)nc(Nc3ccccc3)n2)cc1 [Compound 20],inactive,
FC(F)(F)c1cccc(Nc2nc(Nc3ccccc3)nc(N3CCOCC3)n2)c1 [Compound 21],inactive,
COc1ccc(Nc2nc(NN=Cc3ccc(Cl)cc3)nc(Nc3ccccc3)n2)cc1 [Compound 22],inactive,
CCCCN(CCCC)c1nc(NN=Cc2ccc(OCC)c(O)c2)nc(Nc2ccc([N+](=O)[O-])cc2)n1 [Compound 23],inactive,
O=[N+]([O-])c1ccc(Nc2nc(NCc3ccccc3)nc(NN=Cc3ccccc3)n2)cc1 [Compound 24],inactive,
Cc1ccc(Nc2nc(NN=Cc3ccccc3)nc(Nc3ccccc3)n2)cc1 [Compound 25],inactive,
CCN(CC)CCNc1ccc2c3c(cccc13)C(=O)N(Nc1nc(NCc3ccccc3)nc(N(CC)CC)n1)C2=O [Compound 27],inactive,
COc1ccc(Br)cc1/C=N/Nc1nc(Nc2cccc([N+](=O)[O-])c2)nc(N2CCOCC2)n1 [Compound 28],inactive,
Cc1ccccc1Nc1nc(NN=Cc2ccc3c(c2)OCO3)nc(Nc2ccc([N+](=O)[O-])cc2)n1 [Compound 29],inactive,
Cc1ccc(Nc2nc(NN=Cc3cccc(I)c3)nc(Nc3ccccc3)n2)cc1 [Compound 30],inactive,
Oc1ccc(I)cc1C=NNc1nc(NCc2ccccc2)nc(Nc2ccccc2)n1 [Compound 33],inactive,
Oc1c(Br)cc(Cl)cc1/C=N/Nc1nc(Nc2cccc(C(F)(F)F)c2)nc(N2CCOCC2)n1 [Compound 34],inactive,
CCCCN(CCCC)c1nc(NN=Cc2cccc(Cl)c2)nc(Nc2ccc([N+](=O)[O-])cc2)n1 [Compound 35],inactive,
Cc1ccc(Nc2nc(NN=Cc3ccc(I)cc3)nc(Nc3ccccc3)n2)c(C)c1 [Compound 113],,300

SMILES,RRE + rRNA IC50 (μM),IC50 [µM]
O=[N+]([O-])c1ccc(Nc2nc(NN=Cc3ccc(Br)cc3)nc(N3CCCCCC3)n2)cc1 [Compound 117],inactive,
FC(F)(F)c1cccc(Nc2nc(NN=Cc3ccc(Cl)cc3)nc(N3CCOCC3)n2)c1 [Compound 120],,1110
C(=Cc1ccccc1)C=NNc1nc(Nc2ccccc2)nc(Nc2ccccc2)n1 [Compound 125],,1000
COc1ccc(Nc2nc(NN=Cc3ccc(O)cc3O)nc(Nc3ccccc3)n2)cc1 [Compound 158],inactive,
Cc1ccc(Nc2nc(NN=Cc3cc(I)ccc3O)nc(Nc3ccccc3)n2)c(C)c1 [Compound 159],inactive,
Oc1ccc(Cl)cc1C=NNc1nc(Nc2ccc3ccccc3c2)nc(N2CCOCC2)n1 [Compound 160],,420
COc1c(C=NNc2nc(NCc3ccccc3)nc(Nc3ccccc3)n2)cccc1[N+](=O)[O-] [Compound 162],inactive,
Brc1cccc(C=NNc2nc(Nc3ccccc3)nc(N3CCOCC3)n2)c1 [Compound 163],inactive,
COc1ccc(Nc2nc(NN=Cc3ccc(O)cc3O)nc(N3CCOCC3)n2)cc1 [Compound 164],inactive,
COc1ccc(C=NNc2nc(NCc3ccccc3)nc(Nc3ccccc3)n2)cc1 [Compound 165],inactive,
Ic1cccc(C=NNc2nc(Nc3ccc4ccccc4c3)nc(N3CCOCC3)n2)c1 [Compound 166],inactive,
Oc1ccc2ccccc2c1C=NNc1nc(Nc2cccc3ccccc23)nc(N2CCOCC2)n1 [Compound 167],inactive,
COc1c(C=NNc2nc(Nc3ccccc3)nc(Nc3ccccc3)n2)ccc(Br)c1O [Compound 168],inactive,
Oc1ccccc1C=NNc1nc(Nc2ccccc2)nc(N2CCCCC2)n1 [Compound 169],inactive,
COc1cccc(C=NNc2nc(Nc3ccccc3)nc(N3CCCC3)n2)c1O [Compound 170],,740
CCN(CC)c1nc(NN=Cc2c(O)ccc3ccccc23)nc(Nc2ccccc2)n1 [Compound 171],inactive,
Cc1cccc(C(=O)Oc2ccc(C=NNc3nc(N4CCCCC4)nc(N4CCCCC4)n3)cc2)c1 [Compound 181],inactive,
CC(=NNc1nc(NCc2ccccc2)nc(Nc2ccccc2)n1)c1ccc([N+](=O)[O-])cc1 [Compound 182],inactive,
CC(=NNc1nc(Nc2ccccc2)nc(N2CCCC2)n1)c1ccc([N+](=O)[O-])cc1 [Compound 183],inactive,
Cc1ccc(Nc2nc(NCc3ccccc3)nc(NN=Cc3ccc(F)cc3F)n2)cc1C [Compound 191],inactive,
CN(C)c1nc(NCc2ccccc2)nc(NCc2cccs2)n1 [Compound 192],inactive,
COc1c(C=NNc2nc(N3CCCC3)nc(N3CCOCC3)n2)cccc1[N+](=O)[O-] [Compound 193],inactive,
Cc1ccc(Nc2nc(NCc3ccccc3)nc(Nc3ccc([N+](=O)[O-])cc3)n2)cc1C [Compound 194],inactive,
COc1ccccc1C=NNc1nc(NCc2ccccc2)nc(Nc2ccccc2)n1 [Compound 195],inactive,
Cc1ccc(Nc2nc(NN=Cc3ccc(Cl)cc3)nc(N3CCOCC3)n2)cc1Cl [Compound 196],inactive,

SMILES,RRE + rRNA IC50 (μM),IC50 [µM]
COc1ccc(Nc2nc(NN=Cc3cc(Br)cc(Br)c3O)nc(N3CCOCC3)n2)cc1 [Compound 200],inactive,
Fc1cccc(C=NNc2nc(Nc3ccccc3)nc(N3CCCC3)n2)c1 [Compound 201],inactive,
CCN(CC)c1nc(Nc2cccc(Br)c2)nc(Nc2cc(C)ccc2C)n1 [Compound 202],inactive,
O=C(CSc1nc(SCC(=O)Nc2ccccc2C(F)(F)F)nc(SCC(=O)Nc2ccccc2C(F)(F)F)n1)Nc1ccccc1C(F)(F)F [Compound 212],inactive,
C(=Cc1ccccc1)C=NNc1nc(Nc2ccccc2)nc(N2CCCC2)n1 [Compound 213],,519
CCN(CC)c1nc(NN=Cc2ccc(Cl)c([N+](=O)[O-])c2)nc(Nc2cc(C)ccc2C)n1 [Compound 214],inactive,
Clc1ccc(C=NNc2nc(Nc3ccccc3)nc(N3CCCC3)n2)cc1 [Compound 218],,57.8
Cc1ccc(Nc2nc(NCc3ccccc3)nc(NN=Cc3cc(Br)cc(Br)c3O)n2)cc1C [Compound 219],inactive,
O=C(NNc1nc(Nc2ccccc2)nc(Nc2cccc(C(F)(F)F)c2)n1)c1cccc(Br)c1 [Compound 220],,918
CN(C)c1nc(NCc2ccccc2)nc(NN=Cc2ccc(Cl)cc2Cl)n1 [Compound 224],inactive,
COc1ccc(Nc2nc(NCc3cccc([N+](=O)[O-])c3)nc(NCc3cc(F)ccc3F)n2)cc1OC [Compound 225],inactive,
Cc1ccc(Nc2nc(NCc3ccccc3)nc(NN=Cc3cc(Cl)ccc3O)n2)cc1C [Compound 226],,422
CC(=NNc1nc(Nc2ccccc2)nc(N2CCCC2)n1)c1ccc(F)cc1 [Compound 227],inactive,
Cc1ccc(Nc2nc(NCc3ccccc3)nc(NN=Cc3ccccc3F)n2)cc1C [Compound 228],inactive,
Cc1ccc(Nc2nc(NN=Cc3cccc([N+](=O)[O-])c3)nc(Nc3ccccc3)n2)c(C)c1 [Compound 229],inactive,
Brc1ccc(Nc2nc(NCc3ccccc3)nc(Nc3ccc(Br)cc3)n2)cc1 [Compound 230],inactive,
O=[N+]([O-])c1ccc(Nc2nc(NCc3ccccc3)nc(N3CCOCC3)n2)cc1 [Compound 231],inactive,
Oc1ccc(Br)cc1C=NNc1nc(Nc2cccc(Br)c2)nc(N2CCOCC2)n1 [Compound 232],inactive,
CNc1nc(NN=Cc2cc(Cl)ccc2O)nc(Nc2ccccc2)n1 [Compound 245],inactive,
Oc1ccc(Br)cc1C=NNc1nc(Nc2cccc(C(F)(F)F)c2)nc(N2CCOCC2)n1 [Compound 246],inactive,
FC(F)(F)c1cccc(Nc2nc(Nc3cccc(Cl)c3)nc(N3CCOCC3)n2)c1 [Compound 247],inactive,
Cc1ccc(Nc2nc(NCc3cc(F)ccc3F)nc(Nc3ccc([N+](=O)[O-])cc3)n2)cc1C [Compound 248],inactive,
Cc1ccc(Nc2nc(NN=Cc3ccc(Cl)cc3)nc(N3CCOCC3)n2)cc1 [Compound 249],inactive,
